Measured values published in US20240368133A1, “Compounds for the Treatment of Pain, in Particular, Neuropathic Pain, and/or Other Diseases or Disorders that are Associated with AT2R and/or AT2R Mediated Signaling” (Confo Therapeutics N.V., priority 2021, published 2024).

Assays:
[1] = Caco-2 permeability assay; assay type: in vitro ADME; conditions: human, pH 7.4; Caco-2, BA
human AT1R = human AT1R (Homo sapiens (Human), UniProt P30556); experiment: Counterscreen radioligand binding assay, displacement of 125I-[Sar1, Ile8]-Angiotensin II, hAT1R WT; conditions: 125I-[Sar1, Ile8]-Ang II, semi-quantitative score
In short: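 Membranes from HEK-293 cells expressing human AT1R were incubated for one hour at 25° C, pH 7.4, with 0.05 nM radiolabelled [Sar1, Ile8]-Ang II and test ligand. Bound radioactivity was collected on PEI-soaked filters, with 10 μM unlabelled [Sar1]-Ang II defining non-specific binding. Results are percent displacement at 1 μM and […], or IC50 from eight-point duplicate curves.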

[2] = Caco-2 permeability assay; assay type: in vitro ADME; conditions: human
Protocol: Caco-2 cells were cultured in 75 cm^2 flasks to 80-90% confluence according to the ATCC and Millipore recommendations (Arena A. et al., 2003) in humidified atmosphere at 37° C. and 5% CO2. Cells were detached with Trypsin/EDTA solution and resuspended in the cell culture medium to a final concentration of 2×10^5 cells/ml. 500 μl of the cell suspension was added to each well of HTS 24-Multiwell Insert System and 1000 μl of prewarmed complete medium was added to each well of the feeder-plate. Caco-2 cells were incubated in Multiwell Insert System for 21 days before the transport experiments. The medium in filter plate and feeder tray was refreshed every other day. After 21 days of the cell growth, the integrity of the monolayer was verified by measuring the transepithelial electrical resistance (TEER) for every well using the Millicell-ERS system ohm meter. The final TEER values were within the range 150-600 Ω×cm^2 (Srinivasan B. et al., 2015) as required for the assay conditions. 24-well insert plate was removed from its feeder plate and placed in a new sterile 24-well transport analysis plate. The inserts were washed with PBS after medium aspiration. To determine the rate of compounds transport in apical (A)-to-basolateral (B) direction, 300 μL of the test compound dissolved in transport buffer at 10 μM (HBSS, 25 mM HEPES, pH=7.4) was added into the filter wells; 1000 μL of buffer (HBSS, 25 mM HEPES, pH=7.4) was added to transport analysis plate wells. Propranolol, Atenolol, Quinidine and Digoxin were used as reference compounds. The plates were incubated for 90 min at 37° C. under continuous shaking at 50 rpm. 75 μL aliquots were taken from the donor and receiver compartments for LC-MS/MS analysis. All samples were mixed with 2 volumes of acetonitrile followed by protein sedimentation by centrifuging at 10000 rpm for 10 minutes. Supernatants were analyzed using the HPLC system coupled with tandem mass spectrometer. The apparent permeability (Papp) was calculated for Caco-2 permeability assay using the following equation:
• VA=volume of transport buffer in acceptor well • Area=surface area of the insert (equals to effective growth area of the insert −0.31 sq.cm) • Time=time of the assay • [drug]acc=concentration of test compound in acceptor well • [drug]initial,d=initial concentration of test compound in a donor well • Papp is expressed in 10^−6 cm/sec.
The % recovery can be useful in interpreting the Caco-2 data. If the recovery is very low, this may indicate poor solubility, binding of the compound to the test plate materials, metabolism by the Caco-2 cells, or accumulation of the compound in the cell monolayer. The % recovery was calculated using the following equation:
• Vacc=volume of compound solution in acceptor well […] • Vd=volume of compound solution in […] • Cacc=concentration of test compound in acceptor well (μM) • Cinitial,d=initial concentration of test compound in a donor well (μM)

human AT2R fused to Cb23 = human AT2R fused to Cb23 (Homo sapiens, UniProt P50052); experiment: Radioligand binding assay, displacement of 125I-[Sar1, Ile8]-Angiotensin II, hAT2R Cb23; conditions: displacement of 125I-[Sar1, Ile8]-Angiotensin II, human AT2R fused to Cb23, HEK-293 cell membrane preparations; read-out: Binding affinity on hAT2R_Cb23 IC50
In short: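 Membranes from HEK-293 cells expressing human AT2R fused to Cb23 were incubated with 0.05 nM 125I-[Sar1, Ile8]-Angiotensin II in 100 μL buffer (50 mM Tris, 5 mM MgCl2, 1 mM EDTA, 0.1% BSA, pH 7.4) for one hour at 25° C. Ligands were tested as eight-point dose-response curves in duplicate, with C21 and Angiotensin II as references.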

human AT1R, sequence (P30556 whole entry): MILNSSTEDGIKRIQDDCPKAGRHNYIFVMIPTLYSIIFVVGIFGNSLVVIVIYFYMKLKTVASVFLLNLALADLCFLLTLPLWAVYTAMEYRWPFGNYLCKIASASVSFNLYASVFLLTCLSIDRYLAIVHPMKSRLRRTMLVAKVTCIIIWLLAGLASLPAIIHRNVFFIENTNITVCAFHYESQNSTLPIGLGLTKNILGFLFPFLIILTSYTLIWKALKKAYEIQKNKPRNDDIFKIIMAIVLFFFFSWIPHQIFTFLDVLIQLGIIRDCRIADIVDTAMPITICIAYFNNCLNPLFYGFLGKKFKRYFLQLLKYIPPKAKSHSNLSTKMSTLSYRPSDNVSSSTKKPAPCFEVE
human AT2R fused to Cb23, sequence (P50052 whole entry, looked up, the tested form may be a part): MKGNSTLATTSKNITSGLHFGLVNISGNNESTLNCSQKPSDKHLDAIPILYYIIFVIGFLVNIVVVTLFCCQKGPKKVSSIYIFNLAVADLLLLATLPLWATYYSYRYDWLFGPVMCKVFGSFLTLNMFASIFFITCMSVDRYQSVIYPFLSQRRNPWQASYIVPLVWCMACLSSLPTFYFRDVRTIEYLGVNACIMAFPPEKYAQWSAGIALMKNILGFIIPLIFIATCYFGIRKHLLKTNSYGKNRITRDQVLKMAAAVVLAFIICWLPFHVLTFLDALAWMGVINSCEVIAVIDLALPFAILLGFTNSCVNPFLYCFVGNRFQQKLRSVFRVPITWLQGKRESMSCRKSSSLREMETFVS

CCc1cc(CC(C)C)cc(N2CCN(Cc3cccnn3)CC2)c1-c1nn[nH]n1 [Compound A-168]
Papp B→A at 90 min, 10 µM [1]: 14.7 ×10⁻⁶ cm/s | inhibition at 1 µM (human AT1R; compound at 1 μM, read-out: % Displaced radioligand at 1 μM): < 30% | inhibition at 10 µM (human AT1R; compound at 10 μM, read-out: % Displaced radioligand at 10 μM): < 30% | efflux ratio at 90 min, 10 µM ([2]; Caco-2, pH 7.4): 11.3 | recovery at 90 min, 10 µM ([2]; Caco-2, pH 7.4): 97% | Papp A→B at 90 min, 10 µM ([2]; pH 7.4, Caco-2, AB): 1.3 ×10⁻⁶ cm/s | IC50 (human AT2R fused to Cb23): 17.7 nM
